Experimental data as given in patent publication US6642365B1, “Anti-(retro)viral conjugates of saccharides and acetamidino or guanidino compounds” (Yeda Research and Development Co. Ltd., priority 2001, dated 2003).

Key:
TAR RNA [1] = experiment: L-arginine-Amberlite affinity column elution of TAR RNA; assay type: binding, HIV-1; conditions: concentration that elutes 50% of TAR RNA from L-arginine-Amberlite affinity column
Method: (§1) The model Tat peptide (R52: […]) was prepared by the Weizmann Institute Chemical Services and was purified by reverse phase HPLC (C-18) (Lapidot et al., 1995). […] The RNA was transcriptionally labeled with α-^32P UTP, purified on a 12% polyacrylamide/7M urea gel (19:1 acrylamide:bis-acrylamide) and was eluted from the gel by 0.5M ammonium acetate, 10 mM magnesium acetate, 1 mM EDTA and 0.1% SDS. The sample was subjected to phenol extraction and the RNA was precipitated from 70% ethanol. Purified RNA was dissolved in diethyl pyrocarbonate-treated water (DEPC water), its concentration was determined by UV absorption at 260 nm and the specific radioactivity was determined by scintillation counting on a LS 1701 “Bruker” counter.
The L-arginine-Amberlite resin was prepared as follows: Carboxyl groups of Amberlite IRC-50 resin were covalently modified with ethanolamine using 1-(3-dimethylaminopropyl) 3-ethylcarbodiimide, a water-soluble coupler. The hydroxy ethyleneamide resin obtained was washed and dried, and L-arginine (12-16 μmols per ml of resin) was coupled to the hydroxy groups of the resin via an isourea moiety using a standard cyanogen bromide protocol. The final concentration of arginine residues was 12-16 μmol per ml of resin. The swollen L-arginino-Amberlite resin (200 μl) was packed into a plastic mini-column and equilibrated with buffer containing 40 mM Tris HCl, pH 7.5, 250 mM NaCl, 0.5 mM EDTA and 5 mM MgCl2 (buffer A). Approximately 1 ng of ^32P-UTP labeled TAR RNA in buffer A was loaded on the column. The column was eluted 3 to 5 times with 400 μl portions of buffer A, until no radioactivity was detected in the eluent. […] Each of the test compounds was dissolved in buffer A and passed through the column in 300 μl portions. Radioactivity of the eluates was determined by scintillation counting on a LS 1701 “Bruker” counter. CE50 values, the concentrations of inhibitors eluting 50% of the radioactive material from the column, were determined.

TAR RNA [2] = experiment: Gel-shift binding to TAR RNA; parameters: species or system HIV-1; conditions: for CD50: 50% binding; for effect of ten-fold excess of yeast tRNA on complex formation with TAR: ten-fold excess of tRNA (100 ng per lane)
Method: as §1
To study the affinity of the test compounds to TAR, gel-shift and gel-shift inhibition experiments were performed. The binding reaction mixtures (20 μl) contained ^32P-labeled TAR (18-44) RNA oligonucleotide (3-6 nM) and Tat R52 peptide (35-75 nM) in a binding buffer (10 mM Tris-HCl pH 7.5, 70 mM NaCl, 0.2 mM EDTA and 5% glycerol). The reaction mixtures were incubated for 10 minutes on ice and resolved by electrophoresis on a 10% non-denaturing polyacrylamide gel (40:1 acrylamide:bis-acrylamide) at 200V, for 3 h at 4° C. Gels were dried and visualized by autoradiography. Quantitations were obtained by optical densitometry of films. Alternatively, results were visualized by exposing the wet gels to Fuji phosphoimager plates, which were read on a “Storm 820” (Molecular Dynamics) phosphoimager. […]
Binding of aminoglycoside-arginine conjugates (AAC) to TAR RNA was measured by adding varying concentrations of each conjugate to reaction mixtures (20 μl) which contained 12 nM ^32P-labeled TAR RNA. The reactions were analyzed as described above.

TAR RNA [3] = experiment: RNase A footprinting of TAR RNA; assay type: binding, HIV-1; conditions: 1 μM TAR, 200 pM RNase A
Method: In a typical experiment 10 μl of 5 mM cacodylate buffer pH 6.5, containing 25 mM KCl and 50-100 ng 5′ ^32P-labeled TAR RNA (approximately 0.5-1 μM) were incubated with 200 pM RNase A (Sigma) at room temperature for 10 minutes in the presence of Tat R52 and the conjugates of the invention at various concentrations. In the competition experiments, the mixture was supplemented with 0.5 μg yeast tRNA (Sigma). After the incubation, 10 μl of formamide/bromphenol blue loading buffer was added to the samples. The samples were heated to 80° C. for 2 min and were resolved by electrophoresis on 40 cm×0.8 mm 20% polyacrylamide denaturing gel (7M urea) for 3 hours at 55° C. The results were visualized by a phosphoimager as described above and quantitated using ImageQuant software.
TAR RNA and RNase A concentrations were established by co-titration. To produce a “single-hit” kinetics conditions, 1 μM TAR versus 200 pM RNase A were selected. Tat R52 and AAC concentrations were determined by titration. […] RNase A cleaved TAR RNA in an uneven manner (FIG. 4A., lane 2). The most susceptible regions for cleavage were the single-stranded loop, nucleotides U31-G34 as well as C24 and U25 of the bulge. Strong cleavage was also observed at G21-G41 and A20-U42 pairs (lower stem). Binding of R52 (2-4 μM) caused a weakening of the bands in the upper stem region, (G26-C39, A27-C38, as well as U40) (FIG. 4A., lanes 3, 4). At 4 μM R52, the cleavage at G34 (loop) was enhanced, as well as a certain enhancement of bands A20, G21, U23 and U25 was observed. Remarkably, the band corresponding to the R52-TAR complex still was observed on the gels even after electrophoresis under strongly denaturing conditions. In the presence of R4K (10-20 μM), the upper stem (G26-C29), the lower stem and the bulge (G21-U23, partially C24 and U25) were protected as well as C38, C39 and U40. Cleavage at C19 and A20 of the lower stem and C30, G33 and G34 of the loop was enhanced by 10 μM R4K, whereas with 20 μM R4K the protection of C30, G34 and A20-G21 was observed (FIG. 4A., lanes 5, 6). […] Cleavages at C19-A20 in the lower stem as well as at G30 and G34 in the loop were observed (FIG. 4A., lanes 7, 8). In the presence of GB4K (20 μM) no significant protection was observed.

TAR RNA [4] = experiment: Gel-shift binding to TAR RNA; parameters: species or system HIV-1; conditions: 50% binding; TAR RNA 2 nM

“YKKKRKKKKKA [Tat R52 peptide, Tat-derived model undeca peptide, containing a single arginine moiety at position 52 of native Tat protein, in the strand of lysines, reference compound]” showed a CE50 (TAR RNA [1]) of 0.5 mM, a CD50 (TAR RNA [2]; TAR RNA 6 nM) of 35 nM and a CD50 (TAR RNA [2]; TAR RNA 12 nM) of 75 nM. The CD50 (TAR RNA [2]; TAR RNA 20 nM) was 200 nM, the “effect of ten-fold excess of yeast tRNA on complex formation with TAR” value (TAR RNA [2]) was “do not inhibit the binding” and the “effect of ten-fold excess of yeast tRNA on complex formation with TAR” value (TAR RNA [2]; listed as R52) was “did not inhibit complex formation”. The “concentration giving effective protection of TAR” value (TAR RNA [3]) was 2 µM and the CD50 (TAR RNA [4]) was 6 to 12 nM.
